{"source": "patent US20230218681A1", "about": "“BREVUNDIMONAS SP FOR USE IN DISEASE PREVENTION AND TREATMENT” (Zivo Bioscience, Inc., priority 2021, published 2023)", "key": {"[1]": {"system": "Eimeria acervulina, Eimeria maxima, and Eimeria tenella", "assay": "First study: floor-pen broilers challenged with Eimeria on Day 7, test material in feed, Days 0-28", "format": "in vivo, broiler chicks", "experimental": "(§1) Chicks were obtained within twelve hours of hatching from fecal contaminated flocks at a commercial hatchery on Day 0 (hatch and placement day). Three-hundred mixed-sex broiler chicks (50:50 sex ratio) were randomly assigned on Day 0 by individual weights to each of several test group pens, each with replicates. Only antibiotic-free birds were sourced, and no coccidiosis vaccine was administered at the hatchery or at any time during the study. Chicks were evaluated upon receipt for signs of disease or other complications that could affect study outcome. Weak birds were humanely sacrificed. Birds were not replaced during the study.\n(§2) Following examination, chicks were weighed and allocated to pens for the various treatment groups using a randomized block design. Weight distribution across the treatment groups was assessed prior to feeding by comparing the individual test groups' standard deviations of the mean against that of the control group. Weight distribution across the groups was considered acceptable for this study when differences between control and test groups were within one standard deviation.\n(§3) All birds received nutritionally adequate diets as pellets (crumbled pellets for Days 1-14). Birds were fed their respective treatment diets ad libitum from day of hatch to 28 days of age. (The typical average market age is 42 days.) Birds were raised on built-up litter to further mimic stress conditions typically experienced in poultry production.\n(§4) All diets were offered ad libitum without restrictions to full-fed consumption, except for an 8-hour fasting period prior to cocci-challenge on Day 7 when all birds assigned to challenge test groups received oocyst-inoculated feed containing a mixture of Eimeria acervulina, Eimeria maxima, and Eimeria tenella. Dietary requirements for protein, lysine, methionine, methionine+cystine, arginine, threonine, tryptophan, total phosphorus, available phosphorus, total calcium, dietary sodium, and dietary choline were met by adjusting the concentrations of corn and soybean meal ingredients, as well as other minor ingredients commonly used in poultry production.\n(§5) Pens were monitored for environmental conditions, including temperature, lighting, water, feed, litter condition, and unanticipated house conditions/events. Pens were checked daily for mortality. Examinations were performed on all broilers found dead or moribund. Mortalities were recorded (date and weight) and examined (both internal and external body mass).\nCocci-Challenge—On Day 7, all birds assigned to challenged test groups received oocyst-inoculated feed containing a mixture of Eimeria acervulina, Eimeria maxima, and Eimeria tenella. Adequate feed was precisely weighed and provided to birds to consume at the rate of 100% fill-capacity on average. Prior to the challenge, all birds were starved for eight hours. Inoculated feed was provided to the birds. Following a specific time, all remaining inoculated feed was removed and weighed to assure equal consumption per pen and per bird. The quantity of feed (both placed and withdrawn) was recorded on each pen's feed record.\nDifferences between groups were evaluated at P<0.05, employing Treatment x Replicate RCB (Randomized Complete Block) design. Particularly and as noted, “Significance (P<0.05)” refers to means for groups not sharing common letter designations in the figures which indicates significant difference (P<0.05) between said groups, as determined by Duncan's New Multiple Range Test (MRT 1955)."}, "[2]": {"system": "Eimeria acervulina, Eimeria maxima, and Eimeria tenella", "assay": "Second study: dried bacterial biomass feed ingredients in cocci-challenged floor-pen broilers on built-up litter, Days 1-28", "format": "in vivo, broiler chicks", "source_text": "A second study was undertaken to determine the response and efficacy of a dried bacterial biomass feed ingredient incorporated at a specific amount into a commercial-type corn-soybean diet and fed to floor-pen raised broilers. The second study was undertaken over a 28-day period, from Day 1 to Day 28.\nThe animals were raised under a disease challenge environment (cocci-challenge+built-up litter). For the study and as set forth in FIG. 15, six groups were established, including a first group that received no feed additive ingredient, a second group treated with the anti-coccidia drug Coban® (Elanco), a third group fed a Variovorax-based biomass, a fourth group fed a Brevundimonas-based biomass, a fifth group fed a Sphingomonas-based biomass, and a sixth group fed a 50:50 mixture of a Variovorax and Brevundimonas-based biomass. The feed included corn and soybean meal rations with normal nutritional formulations. No coccidiostat (except for treatment with Coban® provided to the second group) or ABF (antibiotic free products) were administered during the study. No coccidiosis vaccine was administered at the hatchery or during the course of the study.\nas §1, with “A total of 1,800 mixed sex broiler chicks were obtained” for “Chicks were obtained”, “placement day). A number of mixed-sex broiler” for “placement day). Three-hundred mixed-sex broiler”, “weights to one of several” for “weights to each of several”\nas §2, §3\nas §4, with “assigned to the challenge test” for “assigned to challenge test”\nas §5\nCocci-Challenge—On Day 7, all birds assigned to the challenge test groups received oocyst-inoculated feed containing a mixture of Eimeria acervulina, Eimeria maxima, and Eimeria tenella. Adequate feed was precisely weighed and provided to birds to consume at the rate of 100% fill-capacity on average. […]"}, "[3]": {"settings": "cocci challenge Day 7, Days 1-28"}, "[4]": {"settings": "mortality-corrected, cocci challenge Day 7, Days 1-28"}}}
{"smiles": "CC[C@@]1([C@@H]2O[C@@H]([C@H]3O[C@@](O)(CO)[C@H](C)C[C@@H]3C)C[C@@H]2C)CC[C@H]([C@]2(C)CC[C@]3(C[C@H](O)[C@@H](C)[C@@H]([C@@H](C)[C@@H](OC)[C@H](C)C(=O)O)O3)O2)O1", "note": "[Coban, Monensin, USP]", "values": [{"measurement": "Lesion Score Ceca Day 28", "setting": "[1]; Day 28", "result": 0.583}, {"measurement": "Lesion Score Ileum Day 28", "setting": "[1]; Day 28", "result": 0.433}, {"measurement": "Lesion Score Duodenum Day 28", "setting": "[1]; Johnson and Reid method, Day 28", "result": 0.525}, {"measurement": "Avg Pen Body Weight (g) Day 28", "setting": "[1]; cocci challenge Day 7, Day 28", "result": 1430.88, "unit": "g"}, {"measurement": "Feed Intake (g/bird/day) Day 28", "setting": "[1]; cocci challenge Day 7, Day 28", "result": 89.499, "unit": "g/bird/day"}, {"measurement": "% Mortality Days 1-28", "setting": "[1]; [3]", "result": 1.852, "unit": "%"}, {"measurement": "Feed Conversion Ratio Corrected Days 1-28", "setting": "[1]; [4]", "result": 1.527}, {"measurement": "Coccidia Incidence Score Small Intestine Day 28", "setting": "[2]; Day 28", "result": 0.325}, {"measurement": "Lesion Score Duodenum Day 28", "setting": "[2]; Day 28", "result": 0.317}, {"measurement": "Avg Pen Body Weight (g) Day 28", "setting": "[2]; cocci challenge Day 7, Day 28", "result": 1443.182, "unit": "g"}, {"measurement": "Feed Intake (g/bird/day) Day 28", "setting": "[2]; cocci challenge Day 7, Day 28", "result": 75.493, "unit": "g/bird/day"}, {"measurement": "% Mortality Days 1-28", "setting": "[2]; [3]", "result": 3.750, "unit": "%"}, {"measurement": "Feed Conversion Ratio Corrected Days 1-28", "setting": "[2]; [4]", "result": 1.403}]}
